These results are taken from PubChem BioAssay (NCI).

Test systems include CCRF-CEM leukemia; COLO 205 colon; KM12 colon; LOX IMVI melanoma; SN12C renal; U251 CNS; UO-31 renal; OVCAR-4 ovarian.
Experiment in all cases: inhibition of tumour cell growth, NCI panel, 48 h

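48-hour exposure; five concentrations; linearly interpolated endpoints. The concentration for 50% growth inhibition is given as GI50. TGI: total growth inhibition.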

For the compound `CCN(CC)CCOc1c(OC)c(Br)cc2c(C)c(C(=O)OC)oc12`, the GI50 with CCRF-CEM leukemia was 0.154 µM; in the experiment on COLO 205 colon, 0.925 µM; in the experiment on KM12 colon, 0.569 µM; in the experiment with LOX IMVI melanoma, 0.749 µM; with SN12C renal it was 0.92 µM; in the experiment with U251 CNS, 0.28 µM. Besides, the GI50 in the experiment with UO-31 renal was 3.19 µM. Moreover, the TGI in the experiment on CCRF-CEM leukemia was determined as 0.72 µM; in the experiment on COLO 205 colon, 3.68 µM; with KM12 colon, 1.98 µM; with LOX IMVI melanoma, 1.45 µM; in the experiment on SN12C renal it was 2.36 µM; with U251 CNS, 0.97 µM. The TGI in the experiment with UO-31 renal is 50 µM.
Take `CC1(C)C=[N+]([O-])C(C)(C)N1O`: the TGI with CCRF-CEM leukemia, in the experiment on COLO 205 colon, in the experiment on KM12 colon, with OVCAR-4 ovarian, with SN12C renal and in the experiment on U251 CNS was > 10 µM in each case. In the experiment with UO-31 renal, the TGI was > 10 µM.
As for `CC[C@@]12C=CCN3CC[C@]4(c5cc(NC(=O)COc6cc(OCC(=O)Nc7cc8c(cc7OC)N(C)[C@H]7[C@@](O)(C(=O)OC)[C@H](OC(C)=O)[C@]9(CC)C=CCN%10CC[C@]87[C@@H]%109)cc7oc(-c8ccccc8)cc(=O)c67)c(OC)cc5N(C)[C@@H]4[C@](O)(C(=O)OC)[C@H]1OC(C)=O)[C@H]32`, the GI50 with CCRF-CEM leukemia was 3.51 µM; in the experiment on COLO 205 colon, 3.88 µM; in the experiment on LOX IMVI melanoma, 2.63 µM; with SN12C renal, 7.27 µM; in the experiment on U251 CNS it was 3.29 µM; with UO-31 renal, > 100 µM. Besides, the TGI in the experiment on CCRF-CEM leukemia is > 100 µM; in the experiment with COLO 205 colon, 27.3 µM; in the experiment with LOX IMVI melanoma, 10.1 µM; in the experiment on SN12C renal it was > 100 µM; with U251 CNS it was > 100 µM; in the experiment on UO-31 renal, > 100 µM.
As to `CC[C@H](Nc1nc(N)nc(C2CC2)c1C#N)c1nc2cccc(NCc3ccc(C(=O)NO)cc3)c2c(=O)n1-c1ccccc1`, the GI50 was 0.734 µM in the experiment with CCRF-CEM leukemia; 2.24 µM in the experiment on COLO 205 colon; 2.07 µM in the experiment with KM12 colon; 2.6 µM with OVCAR-4 ovarian; 1.79 µM in the experiment on SN12C renal; 1.26 µM in the experiment on UO-31 renal. The TGI in the experiment with CCRF-CEM leukemia was > 100 µM; with COLO 205 colon, 5.75 µM; in the experiment with KM12 colon, 4.69 µM; in the experiment on OVCAR-4 ovarian it was > 100 µM; with SN12C renal it was 5.39 µM; with UO-31 renal it was 2.59 µM.
Consider `CSc1nsc(S/C=C\C(=O)c2ccc(C)cc2)n1`, for which the GI50 in the experiment with COLO 205 colon was 25.5 µM; in the experiment with KM12 colon, 28 µM; in the experiment with LOX IMVI melanoma, 4.94 µM; in the experiment with OVCAR-4 ovarian it was 20.8 µM; in the experiment with SN12C renal, 18.3 µM; with U251 CNS, 17.2 µM. In the experiment with UO-31 renal, the GI50 was 15.1 µM. Moreover, the TGI was > 63.7 µM in the experiment with COLO 205 colon; > 64.7 µM in the experiment with KM12 colon; 10.8 µM in the experiment with LOX IMVI melanoma; > 58.9 µM in the experiment on OVCAR-4 ovarian; 35.9 µM in the experiment on SN12C renal; 41.5 µM in the experiment on U251 CNS. Further, the TGI in the experiment with UO-31 renal is > 62.8 µM.
On to `CCn1c(=O)c2c3ccc(OC(C)=O)cc3[nH]c2c2ccc(OC(C)=O)cc21`, for which the TGI in the experiment with CCRF-CEM leukemia, with COLO 205 colon, in the experiment on KM12 colon, in the experiment on OVCAR-4 ovarian, with SN12C renal and in the experiment on U251 CNS was > 100 µM in each case. For the same compound, the TGI with UO-31 renal was > 100 µM.
Take `COC(=O)C(=O)C(C(=O)C(N)=O)c1nc2ccc(C(=O)c3ccccc3)cc2[nH]c1=O` (stereo not drawn): the TGI in the experiment on CCRF-CEM leukemia, with KM12 colon, in the experiment with LOX IMVI melanoma, in the experiment on OVCAR-4 ovarian, in the experiment with SN12C renal and in the experiment with U251 CNS was > 100 µM each time.
On to `COc1cc2c3c(c1OC)C1(C=CC(=O)C=C1)CC3NCC2` (stereo not drawn), for which the TGI in the experiment with CCRF-CEM leukemia, in the experiment with COLO 205 colon, with KM12 colon, with LOX IMVI melanoma, with OVCAR-4 ovarian and with SN12C renal was > 100 µM each time. The TGI in the experiment on U251 CNS is > 100 µM.
For the compound `Cc1ccc(/C=C2/NC(=S)SC2=O)cc1`, the TGI with COLO 205 colon, in the experiment on KM12 colon, with LOX IMVI melanoma, with OVCAR-4 ovarian, in the experiment on SN12C renal and in the experiment with U251 CNS was > 100 µM throughout. This compound also showed a TGI in the experiment on UO-31 renal of 93.1 µM.
Consider `C[C@]12CC[C@H]3[C@@H](CC[C@]4(O)C[C@@H](O)CC[C@]34CO)[C@@]1(O)CC[C@@H]2C1=CC(=O)OC1`, for which the TGI in the experiment with CCRF-CEM leukemia was > 36.7 µM; in the experiment on COLO 205 colon, 29.7 µM; with KM12 colon, 17 µM; in the experiment with LOX IMVI melanoma it was 8.19 µM; in the experiment on SN12C renal it was 11 µM.
On to `Cc1nn(CNc2ccccc2C(F)(F)F)c(=S)n1/N=C/c1ccc(F)cc1`, for which the GI50 was 14.2 µM in the experiment on CCRF-CEM leukemia; 53.2 µM in the experiment on COLO 205 colon; > 100 µM in the experiment on KM12 colon; > 100 µM in the experiment with LOX IMVI melanoma; 23.3 µM in the experiment with OVCAR-4 ovarian; > 100 µM with UO-31 renal. Further, the TGI is > 100 µM with CCRF-CEM leukemia; > 100 µM with COLO 205 colon; > 100 µM in the experiment on KM12 colon; > 100 µM in the experiment with LOX IMVI melanoma; 70.6 µM with OVCAR-4 ovarian; > 100 µM in the experiment with UO-31 renal.
